Measured values reported in PubChem BioAssay AID504686 (National Center for Advancing Translational Sciences (NCATS), 2011).

Test system: Caco-2 monolayer A->B permeability, LC-MS/MS, 90 min
Experiment: Inhibitors of Human alpha-Glucosidase: Caco-2 Cell Permeability Profiling
Details: hits give high values
Excerpt: Alpha-glucosidase is responsible for the hydrolysis of terminal, non-reducing 1,4-linked alpha-D-glucose residues, which releases alpha-D-glucose. It is a lysosomal hydrolase that is required for the degradation of a small percentage (1-3%) of cellular glycogen in humans. Deficiency of this enzyme results in glycogen-storage disease type II (GSDII), also referred to as Pompe disease, an autosomal recessive disorder. Structurally normal glycogen is accumulated in the lysosomes and cytoplasm in affected patients, primarily in muscle tissues. Excessive glycogen storage within lysosomes may interrupt normal functioning of other organelles and leads to cellular injury. In turn, this leads to enlargement and dysfunction of the entire organ involved (eg: cardiomyopathy and muscle weakness). This bioassays provides profiling data on Caco-2 cell permeability of leads compounds developed for the alpha-Glucosidase project. This in vitro model is often predictive of in vivo absorption of the compound across the intestinal lining by using a Caco2-cell line and measuring the compound's rate of transport […]. NIH Chemical Genomics Center [NCGC] NIH Molecular Libraries Probe Production Centers Network [MLPCN] […]
1. […] The T0, LY and T90, LY plates are read by FlexStation 3 at excitation of 485 nm and emission of 535 nm to determine LY permeability. […]

- Papp A->B: 21.3 10^-6 cm/s
Compound: CC(=O)c1ccc(N2CCN(S(=O)(=O)c3ccc4c(c3)CC(=O)N4)CC2)cc1
